This is an account of results in patent US20240254087A1, “SELECTIVE, PARTIAL, AND ARRESTIN-BIASED 5-HT2A AGONISTS WITH UTILITY IN VARIOUS DISORDERS” (Saint Joseph's University, priority 2021, published 2024).

Where only a bound is given, the exact number is not on record here.

T2 sequence (P28223 whole entry): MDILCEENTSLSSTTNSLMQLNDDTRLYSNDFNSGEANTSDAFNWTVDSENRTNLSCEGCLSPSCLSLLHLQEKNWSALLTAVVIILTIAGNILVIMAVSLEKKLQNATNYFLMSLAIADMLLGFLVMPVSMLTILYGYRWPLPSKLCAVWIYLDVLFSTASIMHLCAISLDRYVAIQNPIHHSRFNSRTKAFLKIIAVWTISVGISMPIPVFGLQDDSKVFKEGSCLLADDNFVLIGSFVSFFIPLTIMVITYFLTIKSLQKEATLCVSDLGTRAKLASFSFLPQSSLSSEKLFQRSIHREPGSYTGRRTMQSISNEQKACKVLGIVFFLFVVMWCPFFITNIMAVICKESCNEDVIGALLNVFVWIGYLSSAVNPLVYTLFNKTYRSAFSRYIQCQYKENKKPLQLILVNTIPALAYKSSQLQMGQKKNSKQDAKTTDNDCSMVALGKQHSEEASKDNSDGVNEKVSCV
T4 sequence (P41595 whole entry): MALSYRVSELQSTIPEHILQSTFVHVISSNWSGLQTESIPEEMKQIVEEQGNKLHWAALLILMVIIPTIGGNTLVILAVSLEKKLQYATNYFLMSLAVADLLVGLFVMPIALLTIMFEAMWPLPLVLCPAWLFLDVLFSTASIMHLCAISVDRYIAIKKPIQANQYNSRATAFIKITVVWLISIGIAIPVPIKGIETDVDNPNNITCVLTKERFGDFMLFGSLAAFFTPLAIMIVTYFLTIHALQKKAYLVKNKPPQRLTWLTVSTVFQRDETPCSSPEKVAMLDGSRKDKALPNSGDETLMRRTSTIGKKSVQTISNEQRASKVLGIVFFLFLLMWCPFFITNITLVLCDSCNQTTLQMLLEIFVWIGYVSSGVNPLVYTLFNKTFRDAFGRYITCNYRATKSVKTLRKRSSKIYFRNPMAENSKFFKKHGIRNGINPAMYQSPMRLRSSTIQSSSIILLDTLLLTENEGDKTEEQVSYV
Chain of 5-HT1B (P28222 whole entry, species assumed): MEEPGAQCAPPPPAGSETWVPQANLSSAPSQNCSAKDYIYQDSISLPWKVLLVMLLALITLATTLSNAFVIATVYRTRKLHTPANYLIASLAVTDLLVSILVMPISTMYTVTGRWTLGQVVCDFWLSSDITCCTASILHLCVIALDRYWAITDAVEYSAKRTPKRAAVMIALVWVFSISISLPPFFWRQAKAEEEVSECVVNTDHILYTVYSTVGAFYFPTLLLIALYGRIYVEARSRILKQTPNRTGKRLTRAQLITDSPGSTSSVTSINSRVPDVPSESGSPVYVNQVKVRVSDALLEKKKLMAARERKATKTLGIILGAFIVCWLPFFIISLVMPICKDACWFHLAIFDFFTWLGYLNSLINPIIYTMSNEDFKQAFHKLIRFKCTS
Chain of 5-HT1e (P28566 whole entry, species assumed): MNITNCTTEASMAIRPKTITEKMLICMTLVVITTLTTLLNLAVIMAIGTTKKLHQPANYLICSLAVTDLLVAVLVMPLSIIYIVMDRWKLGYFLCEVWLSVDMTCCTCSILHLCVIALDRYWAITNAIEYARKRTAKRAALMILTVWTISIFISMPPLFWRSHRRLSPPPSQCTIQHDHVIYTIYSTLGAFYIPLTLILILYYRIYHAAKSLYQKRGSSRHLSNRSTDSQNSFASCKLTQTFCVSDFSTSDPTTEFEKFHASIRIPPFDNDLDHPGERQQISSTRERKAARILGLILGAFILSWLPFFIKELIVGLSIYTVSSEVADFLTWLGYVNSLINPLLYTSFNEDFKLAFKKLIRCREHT

For one assay, the target named is 5-HT1D (Homo sapiens, UniProt P28221). Briefly: Competitive radioligand binding (NIMH PDSP).
Chain of 5-HT1D (P28221 whole entry, species assumed): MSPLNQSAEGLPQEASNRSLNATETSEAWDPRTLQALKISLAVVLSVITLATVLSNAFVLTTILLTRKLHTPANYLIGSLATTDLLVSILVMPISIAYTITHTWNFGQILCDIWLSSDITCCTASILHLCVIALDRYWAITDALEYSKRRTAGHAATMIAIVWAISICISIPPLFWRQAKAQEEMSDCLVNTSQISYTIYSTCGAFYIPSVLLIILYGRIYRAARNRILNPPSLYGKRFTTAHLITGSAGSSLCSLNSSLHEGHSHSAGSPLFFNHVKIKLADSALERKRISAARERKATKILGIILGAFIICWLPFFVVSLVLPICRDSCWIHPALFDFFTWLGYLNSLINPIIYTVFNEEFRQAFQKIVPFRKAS
Conditions: not given
The method, then:
(§1) Method 1: Competitive binding experiments were performed by the National Institute of Mental Health Psychoactive Drug Screening Program (NIMH PDSP) using described methods or 5-HT2A experiments performed using [3H]-ketanserin displacement in human 5-HT2A expressing membranes. Target compounds were dissolved in DMSO and an initial screen performed to assess displacement of the radioligand from target receptors at a concentration of 10,000 nM. […] For the Ki experiments, compounds were always tested in triplicate on separate plates. Each plate also contained a known ligand for the receptor as a positive control.
`COc1cc([N+](=O)[O-])c(OC)cc1CCNCc1ccccc1C(F)(F)F` [25N-NBCF3 (14), [2-(2,5-dimethoxy-4-nitrophenyl)ethyl]({[2-(trifluoromethyl)phenyl]methyl}) amine]: the inhibition constant (Ki) (commonly a dissociation constant, usually derived from enzyme kinetics or from competition with a known ligand) was over 10000 nM.

A further assay concerns the target 5-HT1B (Homo sapiens, UniProt P28222). Description: Competitive radioligand binding (NIMH PDSP).
Conditions: not given
The method, then:
as §1
Regarding `COc1cc([N+](=O)[O-])c(OC)cc1CCNCc1ccccc1C(F)(F)F` [25N-NBCF3 (14), [2-(2,5-dimethoxy-4-nitrophenyl)ethyl]({[2-(trifluoromethyl)phenyl]methyl}) amine], the inhibition constant (Ki) was over 10000 nM.

Another assay addresses 5-HT1e (Homo sapiens, UniProt P28566). Briefly: Competitive radioligand binding (NIMH PDSP).
Conditions: not given
As to the method: as §1
With `COc1cc([N+](=O)[O-])c(OC)cc1CCNCc1ccccc1C(F)(F)F` [25N-NBCF3 (14), [2-(2,5-dimethoxy-4-nitrophenyl)ethyl]({[2-(trifluoromethyl)phenyl]methyl}) amine], the inhibition constant (Ki) is over 10000 nM.

For another assay, the target named is T1, 5-HT1A (Homo sapiens, UniProt P08908).
T1 sequence (P08908 1-422): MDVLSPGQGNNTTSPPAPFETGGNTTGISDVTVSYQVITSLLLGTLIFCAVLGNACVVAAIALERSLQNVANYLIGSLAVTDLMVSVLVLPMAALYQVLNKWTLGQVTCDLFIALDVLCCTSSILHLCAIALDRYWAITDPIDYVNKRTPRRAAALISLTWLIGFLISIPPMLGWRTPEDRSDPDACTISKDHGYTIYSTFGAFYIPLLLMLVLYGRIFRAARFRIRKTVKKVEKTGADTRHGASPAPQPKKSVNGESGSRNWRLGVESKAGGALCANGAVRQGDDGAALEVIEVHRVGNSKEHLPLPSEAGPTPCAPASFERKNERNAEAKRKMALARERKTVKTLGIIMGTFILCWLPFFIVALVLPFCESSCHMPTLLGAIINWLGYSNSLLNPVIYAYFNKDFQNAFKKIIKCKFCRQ
Briefly: Competitive radioligand binding (NIMH PDSP).
Conditions: not given
As to the method:
as §1
`COc1cc([N+](=O)[O-])c(OC)cc1CCNCc1ccccc1C(F)(F)F` [25N-NBCF3 (14), [2-(2,5-dimethoxy-4-nitrophenyl)ethyl]({[2-(trifluoromethyl)phenyl]methyl}) amine] had a Ki of 1070 nM.

A further assay addresses T2, 5-HT2A (Homo sapiens, UniProt P28223). Briefly: Competitive radioligand binding (NIMH PDSP).
Conditions: not given
The method, then:
as §1
The compound `COc1cc([N+](=O)[O-])c(OC)cc1CCNCc1ccccc1C(F)(F)F` [25N-NBCF3 (14), [2-(2,5-dimethoxy-4-nitrophenyl)ethyl]({[2-(trifluoromethyl)phenyl]methyl}) amine] showed a Ki of 20 nM.

The target in another assay is T3, 5-HT3 (Homo sapiens, UniProt P46098).
T3 sequence (P46098 24-478): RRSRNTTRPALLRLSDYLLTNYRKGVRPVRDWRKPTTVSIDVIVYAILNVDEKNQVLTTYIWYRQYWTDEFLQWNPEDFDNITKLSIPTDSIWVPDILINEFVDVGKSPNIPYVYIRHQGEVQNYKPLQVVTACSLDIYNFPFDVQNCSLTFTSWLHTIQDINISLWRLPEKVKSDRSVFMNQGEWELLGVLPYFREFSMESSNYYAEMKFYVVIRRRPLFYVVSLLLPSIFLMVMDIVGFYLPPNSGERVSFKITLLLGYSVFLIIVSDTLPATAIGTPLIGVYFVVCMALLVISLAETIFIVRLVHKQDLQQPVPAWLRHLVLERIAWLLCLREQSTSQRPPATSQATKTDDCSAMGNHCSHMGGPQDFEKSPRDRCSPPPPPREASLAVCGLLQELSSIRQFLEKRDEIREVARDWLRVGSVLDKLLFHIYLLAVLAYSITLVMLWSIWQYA
Briefly: Competitive radioligand binding (NIMH PDSP).
Conditions: not given
The method, then:
as §1
The compound `COc1cc([N+](=O)[O-])c(OC)cc1CCNCc1ccccc1C(F)(F)F` [25N-NBCF3 (14), [2-(2,5-dimethoxy-4-nitrophenyl)ethyl]({[2-(trifluoromethyl)phenyl]methyl}) amine] came in with a Ki of over 10000 nM.

A further assay deals with 5-HT2A. Briefly: Ca2+ flux assay, 5-HT2A. The note with it: Gq/11 Ca2+ mobilization; higher number = skewed towards 5-HT2A. The class given is cell-based, human.
Regarding `COc1cc([N+](=O)[O-])c(OC)cc1CCNCc1ccccc1` [25N-NB (2), Benzyl[2-(2,5-dimethoxy-4-nitrophenyl)ethyl]amine], the “5-HT2A/5-HT2c Selectivity Factor ΔLog(Emax/EC50)” value came out at 23.6.

As for `COc1cc([N+](=O)[O-])c(OC)cc1CCNCc1ccccc1C(F)(F)F` [25N-NBCF3 (14), [2-(2,5-dimethoxy-4-nitrophenyl)ethyl]({[2-(trifluoromethyl)phenyl]methyl}) amine], the “5-HT2A/5-HT2c Selectivity Factor ΔLog(Emax/EC50)” value stood at 85.5.

The next assay has as its target T4, 5-HT2B (Homo sapiens, UniProt P41595). Description: Ca2+ flux assay, 5-HT2B. It counts as cell-based. Also noted: expressed in transfected cells. The note with it: Ca2+ flux.
As for `COc1cc([N+](=O)[O-])c(OC)cc1CCNCc1ccccc1` [25N-NB (2), Benzyl[2-(2,5-dimethoxy-4-nitrophenyl)ethyl]amine], the “5-HT2B EC50, nM” value was “No activity”.

Regarding `COc1cc([N+](=O)[O-])c(OC)cc1CCNCc1ccccc1C(F)(F)F` [25N-NBCF3 (14), [2-(2,5-dimethoxy-4-nitrophenyl)ethyl]({[2-(trifluoromethyl)phenyl]methyl}) amine], the “5-HT2B EC50, nM” value is on record as “No activity”.

The assay is the same for the next values; noted with them: read-out: 5-HT2B Emax % 5-HT; Ca2+ flux.
For the compound `COc1cc([N+](=O)[O-])c(OC)cc1CCNCc1ccccc1` [25N-NB (2), Benzyl[2-(2,5-dimethoxy-4-nitrophenyl)ethyl]amine], the Emax (as a rule, the greatest response seen or fitted, relative to the assay's reference) was under 10%.

In the case of `COc1cc([N+](=O)[O-])c(OC)cc1CCNCc1ccccc1C(F)(F)F` [25N-NBCF3 (14), [2-(2,5-dimethoxy-4-nitrophenyl)ethyl]({[2-(trifluoromethyl)phenyl]methyl}) amine], the Emax was under 10%.

The next assay deals with T2, 5-HT2A. Briefly: Ca2+ flux assay, 5-HT2A. Set-up: expressed in transfected cells. It counts as cell-based. The settings on record: 5-HT2A EC50, nM, Ca2+ flux. (In general: Calcium assays in cells follow changes in intracellular calcium, usually with a dye or a luminescent sensor.)
As for `COc1cc([N+](=O)[O-])c(OC)cc1CCNCc1ccccc1` [25N-NB (2), Benzyl[2-(2,5-dimethoxy-4-nitrophenyl)ethyl]amine], the EC50 (in general, the concentration needed to bring the measured effect to its halfway point) stood at 1.27 nM.

Take `COc1cc([N+](=O)[O-])c(OC)cc1CCNCc1ccccc1C(F)(F)F` [25N-NBCF3 (14), [2-(2,5-dimethoxy-4-nitrophenyl)ethyl]({[2-(trifluoromethyl)phenyl]methyl}) amine]: it took 12.3 nM to reach a half-maximal effect (EC50).

The same assay, now with this note: Ca2+ flux.
On to `COc1cc([N+](=O)[O-])c(OC)cc1CCNCc1ccccc1C(F)(F)F` [25N-NBCF3 (14), [2-(2,5-dimethoxy-4-nitrophenyl)ethyl]({[2-(trifluoromethyl)phenyl]methyl}) amine], for which the “5-HT2A Emax % 5-HT” value is 77 ± 1 % 5-HT.

Still in this assay, the particulars now being: read-out: 5-HT2A Emax % 5-HT, Ca2+ flux.
Turning to `COc1cc([N+](=O)[O-])c(OC)cc1CCNCc1ccccc1` [25N-NB (2), Benzyl[2-(2,5-dimethoxy-4-nitrophenyl)ethyl]amine], the Emax was determined as 86 ± 1%.

As for `COc1cc([N+](=O)[O-])c(OC)cc1CCNCc1ccccc1C(F)(F)F` [25N-NBCF3 (14), [2-(2,5-dimethoxy-4-nitrophenyl)ethyl]({[2-(trifluoromethyl)phenyl]methyl}) amine], the Emax was at most 77%.

A further assay concerns the target T5, 5-HT2C (Homo sapiens, UniProt P28335).
T5 sequence (P28335 33-458): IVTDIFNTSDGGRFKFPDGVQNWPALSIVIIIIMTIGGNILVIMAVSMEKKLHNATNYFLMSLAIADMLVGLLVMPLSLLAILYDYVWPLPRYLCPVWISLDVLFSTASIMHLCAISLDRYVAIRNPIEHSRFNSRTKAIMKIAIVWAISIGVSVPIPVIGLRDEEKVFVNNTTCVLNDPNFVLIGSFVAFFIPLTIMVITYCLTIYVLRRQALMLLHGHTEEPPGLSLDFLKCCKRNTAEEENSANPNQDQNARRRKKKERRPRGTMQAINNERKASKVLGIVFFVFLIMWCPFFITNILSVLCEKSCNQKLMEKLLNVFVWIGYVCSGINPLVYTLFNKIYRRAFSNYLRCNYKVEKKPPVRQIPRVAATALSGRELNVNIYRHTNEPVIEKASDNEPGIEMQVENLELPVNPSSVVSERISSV
Description: Competitive radioligand binding (NIMH PDSP). Set-up: expressed in transfected cells.
Conditions: not given
As to the method:
as §1
In turn, `COc1cc([N+](=O)[O-])c(OC)cc1CCNCc1ccccc1C(F)(F)F` [25N-NBCF3 (14), [2-(2,5-dimethoxy-4-nitrophenyl)ethyl]({[2-(trifluoromethyl)phenyl]methyl}) amine] had an inhibition constant (Ki) of 102 nM.

A further assay has as its target T4, 5-HT2B. Briefly: Competitive radioligand binding (NIMH PDSP). Set-up: expressed in transfected cells.
Conditions: not given
The method, then: as §1
`COc1cc([N+](=O)[O-])c(OC)cc1CCNCc1ccccc1C(F)(F)F` [25N-NBCF3 (14), [2-(2,5-dimethoxy-4-nitrophenyl)ethyl]({[2-(trifluoromethyl)phenyl]methyl}) amine] showed a Ki of 58.9 nM.

The next assay deals with T5, 5-HT2C. Description: Ca2+ flux assay, 5-HT2C. The class given is cell-based. Set-up: expressed in transfected cells. The settings on record: 5-HT2C EC50, nM.
Turning to `COc1cc([N+](=O)[O-])c(OC)cc1CCNCc1ccccc1` [25N-NB (2), Benzyl[2-(2,5-dimethoxy-4-nitrophenyl)ethyl]amine], the 50% effective concentration (EC50) came out at 26.2 nM.

For `COc1cc([N+](=O)[O-])c(OC)cc1CCNCc1ccccc1C(F)(F)F` [25N-NBCF3 (14), [2-(2,5-dimethoxy-4-nitrophenyl)ethyl]({[2-(trifluoromethyl)phenyl]methyl}) amine], the EC50 was 271 nM.

The same assay, now with this note: read-out: 5-HT2C Emax % 5-HT.
As to `COc1cc([N+](=O)[O-])c(OC)cc1CCNCc1ccccc1` [25N-NB (2), Benzyl[2-(2,5-dimethoxy-4-nitrophenyl)ethyl]amine], the Emax worked out at 75 ± 1%.

Consider `COc1cc([N+](=O)[O-])c(OC)cc1CCNCc1ccccc1C(F)(F)F` [25N-NBCF3 (14), [2-(2,5-dimethoxy-4-nitrophenyl)ethyl]({[2-(trifluoromethyl)phenyl]methyl}) amine], for which the Emax stood at 20 ± 2%.
